Data reported in US11090247B2, “Compositions for protecting the skin from heavy metals and formaldehyde” (FNG RESEARCH CO., LTD., priority 2016, dated 2021).

What was measured:
[1] = Removal test of heavy metals of active ingredients (pig skin, ICP-MS): Pb; details: contaminated pig skin
Description: (§1) (1) Preparation of Heavy Metal Contamination Sources and Pig Skin Samples
(§2) A pig was slaughtered, flayed and the bristle was shaved. The pig skin was cut to prepare 5*5 cm size of skin samples respectively.
(§3) The said skin samples were cleanly wiped with wet gauze, and then, added to 50 ml of methanol and extracted by shaking with ultrasonic for 60 min. 50 ml of methanol was further added and mixed. The pig skin samples were removed from the extracted solutions to prepare the test solutions.
(§4) The test solutions were analyzed for heavy metal components using an inductively coupled plasma mass spectrometer (ICP-MS, Xseries™ 2, Thermo Fisher Scientific, UK).

[2] = Removal test of heavy metals of active ingredients (pig skin, ICP-MS): Cd; details: contaminated pig skin
Description: as §1, §2, §3, §4

[3] = Removal test of heavy metals of active ingredients (pig skin, ICP-MS): Cu; details: contaminated pig skin
Description: as §1, §2, §3, §4

human skin = experiment: Skin irritation test of active ingredient (patch method, CTFA guidelines); type: in vivo; design: key to Degree of irritation: 0–0.1 none, 0.11–0.3 weak, 0.31–0.5 moderate, ≥0.51 strong irritation; details: 20 people, patch 24 hours; for Test result(number of subject) (+): (+): Apparent reddening than periphery; for Test result(number of subject) (++): (++): More reddened and swollen than periphery; for Test result(number of subject) (±): (±): slightly reddish than the periphery; for Test result(number of subject) (−): (−): No erythema or particularly no symptoms
Description: A total of 20 people (10 men and 10 women in their 20 s and 30 s) were tested for skin irritation using the patch method according to the guidelines of CTFA (The Cosmetic, Toiletry & Fragrance Association, Inc. Washington, D.C.).
A filter paper disk was placed in an 8 mm diameter, 10 panels of pin chamber.
After 24 hours, the pin chamber was removed, and skin conditions were visually observed.
[Criteria for Skin Irritation]
(−): No erythema or particularly no symptoms; (±): slightly reddish than the periphery; (+): Apparent reddening than periphery; (++): More reddened and swollen than periphery.
[Grade for Skin Irritation]
Degree of irritation 0-0.1: Grade I (unstimulated);
Degree of irritation 0.11-0.3: Grade II (weakly stimulated);
Degree of irritation 0.31-0.5: Grade III (moderately stimulated);
Degree of irritation 0.51 or more: Grade IV (strongly stimulated)

[4] = Formaldehyde removing ability test (GC); details: 2.0% formaldehyde solution; for Area (mAU*min) 30 min: formaldehyde GC area after 30 min; for Area (mAU*min) 30 min / Area (mAU*min) 180 min: 3 molar equivalents, room temperature; for Area (mAU*min) 180 min: formaldehyde GC area after 180 min; for Area (mAU*min) Initial: formaldehyde GC area, initial state, 3 molar equivalents of compound

Compound | Removal of Heavy metals Pb (%) ([1]; 0.1 wt % aqueous solution) | Removal of Heavy metals Pb (%) ([1]; 0.5 wt % aqueous solution) | Removal of Heavy metals Pb (%) ([1]; 1.0 wt % aqueous solution) | Removal of Heavy metals Cd (%) ([2]; 0.1 wt % aqueous solution) | Removal of Heavy metals Cd (%) ([2]; 0.5 wt % aqueous solution) | Removal of Heavy metals Cd (%) ([2]; 1.0 wt % aqueous solution) | Removal of Heavy metals Cu (%) ([3]; 0.1 wt % aqueous solution) | Removal of Heavy metals Cu (%) ([3]; 0.5 wt % aqueous solution) | Removal of Heavy metals Cu (%) ([3]; 1.0 wt % aqueous solution) | Degree of irritation (human skin; 0.1 wt %) | Grade (human skin; 0.1 wt %) | Test result(number of subject) (+) (human skin; 0.1 wt %) | Test result(number of subject) (++) (human skin; 0.1 wt %) | Test result(number of subject) (±) (human skin; 0.1 wt %) | Test result(number of subject) (−) (human skin; 0.1 wt %) | Degree of irritation (human skin; 0.5 wt %) | Grade (human skin; 0.5 wt %) | Test result(number of subject) (+) (human skin; 0.5 wt %) | Test result(number of subject) (++) (human skin; 0.5 wt %) | Test result(number of subject) (±) (human skin; 0.5 wt %) | other results
O=C(O)CN1CCCN(CC(=O)O)CCN(CC(=O)O)CCCN(CC(=O)O)CC1 [Embodiment 9, 2,2′,2″,2′″-(1,4,8,11-tetraazacyclotetradecane-1,4,8,11-tetrayl)tetraacetic acid] | 88.9 | 91.0 | 91.4 | 89.1 | 91.3 | 91.9 | 94.3 | 96.9 | 97.3 | 0 | I (Degree of irritation 0-0.1: Grade I (unstimulated)) | 0 | 0 | 0 | 20 | 0 | I (Degree of irritation 0-0.1: Grade I (unstimulated)) | 0 | 0 | 0 | Test result(number of subject) (−) (human skin; 0.5 wt %): 20; Degree of irritation (human skin; 1.0 wt %): 0.10; Grade (human skin; 1.0 wt %): I (Degree of irritation 0-0.1: Grade I (unstimulated)); Test result(number of subject) (+) (human skin; 1.0 wt %): 0; Test result(number of subject) (++) (human skin; 1.0 wt %): 0; Test result(number of subject) (±) (human skin; 1.0 wt %): 2; Test result(number of subject) (−) (human skin; 1.0 wt %): 18; Area (mAU*min) 30 min [4]: 0.182 mAU*min; Area (mAU*min) 180 min [4]: 0 mAU*min; Area (mAU*min) Initial [4]: 0.305 mAU*min
O=C(O)c1ccc(N2CCCN(c3ccc(C(=O)O)cc3)CCN(c3ccc(C(=O)O)cc3)CCCN(c3ccc(C(=O)O)cc3)CC2)cc1 [Embodiment 10, 4,4′,4″,4′″-(1,4,8,11-tetraazacyclotetradecane-1,4,8,11-tetrayl)tetrabenzoic acid] | 88.3 | 90.5 | 90.9 | 85.7 | 90.4 | 91.1 | 94.1 | 96.0 | 96.5 | 0 | I (Degree of irritation 0-0.1: Grade I (unstimulated)) | 0 | 0 | 0 | 20 | 0 | I (Degree of irritation 0-0.1: Grade I (unstimulated)) | 0 | 0 | 0 | Test result(number of subject) (−) (human skin; 0.5 wt %): 20; Degree of irritation (human skin; 1.0 wt %): 0.05; Grade (human skin; 1.0 wt %): I (Degree of irritation 0-0.1: Grade I (unstimulated)); Test result(number of subject) (+) (human skin; 1.0 wt %): 0; Test result(number of subject) (++) (human skin; 1.0 wt %): 0; Test result(number of subject) (±) (human skin; 1.0 wt %): 1; Test result(number of subject) (−) (human skin; 1.0 wt %): 19; Area (mAU*min) 30 min [4]: 0.171 mAU*min; Area (mAU*min) 180 min [4]: 0 mAU*min; Area (mAU*min) Initial [4]: 0.305 mAU*min
O=C(O)c1cncc(N2CCCN(c3cncc(C(=O)O)c3)CCN(c3cncc(C(=O)O)c3)CCCN(c3cncc(C(=O)O)c3)CC2)c1 [Embodiment 11, 5,5′,5″,5′″-(1,4,8,11-tetraazacyclotetradecane-1,4,8,11-tetrayl)tetranicotinic acid] | 87.9 | 89.2 | 91.2 | 86.7 | 88.9 | 91.0 | 93.8 | 96.0 | 96.8 | 0 | I (Degree of irritation 0-0.1: Grade I (unstimulated)) | 0 | 0 | 0 | 20 | 0 | I (Degree of irritation 0-0.1: Grade I (unstimulated)) | 0 | 0 | 0 | Test result(number of subject) (−) (human skin; 0.5 wt %): 20; Degree of irritation (human skin; 1.0 wt %): 0.10; Grade (human skin; 1.0 wt %): I (Degree of irritation 0-0.1: Grade I (unstimulated)); Test result(number of subject) (+) (human skin; 1.0 wt %): 0; Test result(number of subject) (++) (human skin; 1.0 wt %): 0; Test result(number of subject) (±) (human skin; 1.0 wt %): 2; Test result(number of subject) (−) (human skin; 1.0 wt %): 18; Area (mAU*min) 30 min [4]: 0.174 mAU*min; Area (mAU*min) 180 min [4]: 0 mAU*min; Area (mAU*min) Initial [4]: 0.305 mAU*min
O=C(O)c1ccc(N2CCCN(c3ccc(C(=O)O)o3)CCN(c3ccc(C(=O)O)o3)CCCN(c3ccc(C(=O)O)o3)CC2)o1 [Embodiment 12, 5,5′,5″,5′″-(1,4,8,11-tetraazacyclotetradecane-1,4,8,11-tetrayl)tetrakis(furan-2-carboxylic acid)] | 89.1 | 90.9 | 91.3 | 90.1 | 90.7 | 90.9 | 94.5 | 95.8 | 96.3 | 0 | I (Degree of irritation 0-0.1: Grade I (unstimulated)) | 0 | 0 | 0 | 20 | 0 | I (Degree of irritation 0-0.1: Grade I (unstimulated)) | 0 | 0 | 0 | Test result(number of subject) (−) (human skin; 0.5 wt %): 20; Degree of irritation (human skin; 1.0 wt %): 0.05; Grade (human skin; 1.0 wt %): I (Degree of irritation 0-0.1: Grade I (unstimulated)); Test result(number of subject) (+) (human skin; 1.0 wt %): 0; Test result(number of subject) (++) (human skin; 1.0 wt %): 0; Test result(number of subject) (±) (human skin; 1.0 wt %): 1; Test result(number of subject) (−) (human skin; 1.0 wt %): 19; Area (mAU*min) 30 min [4]: 0.170 mAU*min; Area (mAU*min) 180 min [4]: 0 mAU*min; Area (mAU*min) Initial [4]: 0.305 mAU*min
NCCNCCNCCN [Trientine, Triethylenetetramine, reference compound] | 89.7 | 92.1 | 92.3 | 87.3 | 92.4 | 92.3 | 92.6 | 95.4 | 96.0 | 0 | I (Degree of irritation 0-0.1: Grade I (unstimulated)) | 0 | 0 | 0 | 20 | 0.05 | I (Degree of irritation 0-0.1: Grade I (unstimulated)) | 0 | 0 | 1 | Test result(number of subject) (−) (human skin; 0.5 wt %): 19; Degree of irritation (human skin; 1.0 wt %): 0.15; Grade (human skin; 1.0 wt %): II (Degree of irritation 0.11-0.3: Grade II (weakly stimulated)); Test result(number of subject) (+) (human skin; 1.0 wt %): 0; Test result(number of subject) (++) (human skin; 1.0 wt %): 0; Test result(number of subject) (±) (human skin; 1.0 wt %): 3; Test result(number of subject) (−) (human skin; 1.0 wt %): 17; Area (mAU*min) 30 min [4]: 0.168 mAU*min; Area (mAU*min) 180 min [4]: 0 mAU*min; Area (mAU*min) Initial [4]: 0.305 mAU*min
